Measurements taken from patent US8268797B2, “Combination therapy for the treatment of cancer” (Isis Pharmaceuticals, Inc., priority 2008, dated 2012).

Assays:
A549 xenografts = test: A549 human non-small cell lung cancer xenograft tumor volume in athymic nude mice; format: in vivo; settings: for A549 Xenograft Tumor Volume, Mean / Percent Reduction of A549 Tumor Size on Day 75: ASO 50 mg/kg iv, cisplatin 5 mg/kg IP weekly; for A549 Xenograft Tumor Volume, Mean: nude mice; for Percent Reduction of A549 Tumor Size on Day 75: negative number indicates reduction vs. control
Procedure: (§1) Xenograft studies are carried out as described in Graff et al. (2005) Cancer Res. 65:7462-7469. Five million human cancer cells representing non-small cell lung cancer (line A549; ATCC, accession no. CCL-185; line NCI-H1975; ATCC, accession no. CRL-5908) are injected subcutaneously in the flank of 6-8 week old, athymic nude mice (Harlan, Indianapolis, Ind.) in a 1:1 mixture of serum-free growth medium and matrigel (Becton Dickinson, Bedford, Mass., catalogue #354234). Mice are monitored daily for palpable tumors.
(§2) When tumor volumes reach ˜50-100 mm^3, mice are randomized to treatment groups (Graff et al. (2007) J. Clin. Invest. 117:2638-48). Body weight is monitored each time tumors are measured.
(§3) For treatment, all mice are injected intravenously with the eIF-4E ASO in saline in a total volume of 200 μl. The ASO consists of the nucleotide sequence 5′-[…]-3′ (SEQ ID NO:1), in which every internucleoside linkage is a phosphorothioate linkage, nucleotides 1-5 and 16-20 reading from the 5′ end to the 3′ end each comprise a 2′-O-(2-methoxyethyl) sugar, nucleotides 6-15 are 2′-deoxynucleotides, every cytosine residue is a 5-methylcytosine, and which is in the form of a sodium salt. The mice are first injected with an initial loading dose of 50 mg/kg ASO for 3 consecutive days, followed by 50 mg/kg thrice weekly thereafter.
(§4) Cisplatin dosing begins 8 days after the first ASO dose to allow time for reduction of eIF-4E protein expression. Mice are dosed intraperitoneally (IP) with 2 or 5 mg/kg cisplatin (Teva Parenteral Medicines, Inc.; 0703-5748-11) from an infusion concentrate diluted in saline, in a volume of 200 μl once weekly for 65 days. One mL of infusion concentrate (1 mg/mL) contains 1 mg cisplatin, 9 mg sodium chloride, hydrochloric acid and/or sodium hydroxide to pH 3.2-4.4, and water for injection.
(§5) The vehicle only group is dosed with saline.
(§6) Tumor volumes are calculated measuring the largest (L) and smallest (W) diameters with a caliper. The formula is: Volume=L×W^2×0.534. Tumor volume data are transformed to a log scale to equalize variance across time and treatment groups. The log volume data are analyzed with a two-way repeated measures analysis of variance by time and treatment using SAS PROC MIXED software (SAS Institute Inc, Cary, N.C.) using the spatial power covariance structure. Treatment groups are compared to the control group at each time point and overall. The data may be plotted as means and standard errors for each treatment group versus time. Additivity is assessed in two ways: (1) as an overall interaction effect between the ASO and cisplatin in the repeated measures analysis, and (2) by using the Bliss Independence method on the final day of the study (C. I. Bliss (1939) Ann. AppL Biol. 26:585-615). These two methods yield the same results.

H1975 xenografts = test: H1975 human non-small cell lung cancer xenograft tumor volume in athymic nude mice; format: in vivo; settings: for H1975 Xenograft Tumor Volume, Mean / Percent Reduction of H1975 Tumor Size on Day 43: ASO 50 mg/kg iv, cisplatin 5 mg/kg IP weekly; for H1975 Xenograft Tumor Volume, Mean: nude mice; for Percent Reduction of H1975 Tumor Size on Day 43: negative number indicates reduction vs. control
Procedure: as §1, §2, §3, §4, §5, §6

N.N.[Cl][Pt][Cl] [Cisplatin, cis-Diamminedichloroplatinum (II), reference compound]
A549 Xenograft Tumor Volume, Mean (A549 xenografts; Day 11): 85.43 mm^3 | A549 Xenograft Tumor Volume, Mean (A549 xenografts; Day 14): 94.63 mm^3 | A549 Xenograft Tumor Volume, Mean (A549 xenografts; Day 18): 124.68 mm^3 | A549 Xenograft Tumor Volume, Mean (A549 xenografts; Day 21): 137.74 mm^3 | A549 Xenograft Tumor Volume, Mean (A549 xenografts; Day 25): 210.75 mm^3 | A549 Xenograft Tumor Volume, Mean (A549 xenografts; Day 28): 238.78 mm^3 | A549 Xenograft Tumor Volume, Mean (A549 xenografts; Day 32): 283.12 mm^3 | A549 Xenograft Tumor Volume, Mean (A549 xenografts; Day 36): 310.61 mm^3 | A549 Xenograft Tumor Volume, Mean (A549 xenografts; Day 40): 367.44 mm^3 | A549 Xenograft Tumor Volume, Mean (A549 xenografts; Day 43): 412.68 mm^3 | A549 Xenograft Tumor Volume, Mean (A549 xenografts; Day 47): 405.18 mm^3 | A549 Xenograft Tumor Volume, Mean (A549 xenografts; Day 50): 428.84 mm^3 | A549 Xenograft Tumor Volume, Mean (A549 xenografts; Day 54): 478.35 mm^3 | A549 Xenograft Tumor Volume, Mean (A549 xenografts; Day 57): 482.77 mm^3 | A549 Xenograft Tumor Volume, Mean (A549 xenografts; Day 61): 478.95 mm^3 | A549 Xenograft Tumor Volume, Mean (A549 xenografts; Day 64): 529.51 mm^3 | A549 Xenograft Tumor Volume, Mean (A549 xenografts; Day 68): 520.83 mm^3 | A549 Xenograft Tumor Volume, Mean (A549 xenografts; Day 71): 564.57 mm^3 | A549 Xenograft Tumor Volume, Mean (A549 xenografts; Day 75): 535.33 mm^3 | Percent Reduction of A549 Tumor Size on Day 75 (A549 xenografts; Day 75): −31.9% | H1975 Xenograft Tumor Volume, Mean (H1975 xenografts; Day 7): 40.02 mm^3 | H1975 Xenograft Tumor Volume, Mean (H1975 xenografts; Day 12): 90.76 mm^3 | H1975 Xenograft Tumor Volume, Mean (H1975 xenografts; Day 15): 112.12 mm^3 | H1975 Xenograft Tumor Volume, Mean (H1975 xenografts; Day 19): 172.5 mm^3 | H1975 Xenograft Tumor Volume, Mean (H1975 xenografts; Day 22): 295.95 mm^3 | H1975 Xenograft Tumor Volume, Mean (H1975 xenografts; Day 26): 595.06 mm^3 | H1975 Xenograft Tumor Volume, Mean (H1975 xenografts; Day 29): 863.18 mm^3 | H1975 Xenograft Tumor Volume, Mean (H1975 xenografts; Day 33): 1221.36 mm^3 | H1975 Xenograft Tumor Volume, Mean (H1975 xenografts; Day 36): 1740.85 mm^3 | H1975 Xenograft Tumor Volume, Mean (H1975 xenografts; Day 40): 2095.44 mm^3 | H1975 Xenograft Tumor Volume, Mean (H1975 xenografts; Day 43): 2798.22 mm^3 | Percent Reduction of H1975 Tumor Size on Day 43 (H1975 xenografts; Day 43): −19.6%

d(P-thio) ([2′-O-(2-methoxyethyl)]m5rU-([2′-O-(2-methoxyethyl)]rG-([2′-O-(2-methoxyethyl)]m5rU-([2′-O-(2-methoxyethyl)]mSrC-([2′-O-(2-methoxyethyl)]rA-T-A-T-T-m5C-m5C-T-G-G-A ([2′-O-(2-methoxyethyl)]m5rU-([2′-O-(2-methoxyethyl)]m5rC-([2′-O-(2-methoxyethyl)]m5rC-([2′-O-(2-methoxyethyl)]m5rU-([2′-O-(2-methoxyethyl)]m5rU) [eIF-4E ASO]
sensitization of tumor cells to the growth- and proliferation-inhibiting action of cisplatin (A549 xenografts; A549 xenografts): sensitizes the tumor cells | A549 Xenograft Tumor Volume, Mean (A549 xenografts; Day 11): 86.39 mm^3 | A549 Xenograft Tumor Volume, Mean (A549 xenografts; Day 14): 87.36 mm^3 | A549 Xenograft Tumor Volume, Mean (A549 xenografts; Day 18): 141.7 mm^3 | A549 Xenograft Tumor Volume, Mean (A549 xenografts; Day 21): 134.88 mm^3 | A549 Xenograft Tumor Volume, Mean (A549 xenografts; Day 25): 212.4 mm^3 | A549 Xenograft Tumor Volume, Mean (A549 xenografts; Day 28): 251.64 mm^3 | A549 Xenograft Tumor Volume, Mean (A549 xenografts; Day 32): 309.94 mm^3 | A549 Xenograft Tumor Volume, Mean (A549 xenografts; Day 36): 402.67 mm^3 | A549 Xenograft Tumor Volume, Mean (A549 xenografts; Day 40): 439.54 mm^3 | A549 Xenograft Tumor Volume, Mean (A549 xenografts; Day 43): 499.06 mm^3 | A549 Xenograft Tumor Volume, Mean (A549 xenografts; Day 47): 455.53 mm^3 | A549 Xenograft Tumor Volume, Mean (A549 xenografts; Day 50): 463.92 mm^3 | A549 Xenograft Tumor Volume, Mean (A549 xenografts; Day 54): 520.9 mm^3 | A549 Xenograft Tumor Volume, Mean (A549 xenografts; Day 57): 550.29 mm^3 | A549 Xenograft Tumor Volume, Mean (A549 xenografts; Day 61): 597.72 mm^3 | A549 Xenograft Tumor Volume, Mean (A549 xenografts; Day 64): 618.75 mm^3 | A549 Xenograft Tumor Volume, Mean (A549 xenografts; Day 68): 594.08 mm^3 | A549 Xenograft Tumor Volume, Mean (A549 xenografts; Day 71): 566.2 mm^3 | A549 Xenograft Tumor Volume, Mean (A549 xenografts; Day 75): 608.86 mm^3 | Percent Reduction of A549 Tumor Size on Day 75 (A549 xenografts; Day 75): −22.6% | H1975 Xenograft Tumor Volume, Mean (H1975 xenografts; Day 7): 45.83 mm^3 | H1975 Xenograft Tumor Volume, Mean (H1975 xenografts; Day 12): 85.9 mm^3 | H1975 Xenograft Tumor Volume, Mean (H1975 xenografts; Day 15): 121.6 mm^3 | H1975 Xenograft Tumor Volume, Mean (H1975 xenografts; Day 19): 255.64 mm^3 | H1975 Xenograft Tumor Volume, Mean (H1975 xenografts; Day 22): 376.84 mm^3 | H1975 Xenograft Tumor Volume, Mean (H1975 xenografts; Day 26): 742.98 mm^3 | H1975 Xenograft Tumor Volume, Mean (H1975 xenografts; Day 29): 1100.19 mm^3 | H1975 Xenograft Tumor Volume, Mean (H1975 xenografts; Day 33): 1485.65 mm^3 | H1975 Xenograft Tumor Volume, Mean (H1975 xenografts; Day 36): 2164.31 mm^3 | H1975 Xenograft Tumor Volume, Mean (H1975 xenografts; Day 40): 2901.75 mm^3 | H1975 Xenograft Tumor Volume, Mean (H1975 xenografts; Day 43): 3881.36 mm^3 | Percent Reduction of H1975 Tumor Size on Day 43 (H1975 xenografts; Day 43): 11.5% | sensitization of tumor cells to the growth- and proliferation-inhibiting action of cisplatin (H1975 xenografts; H1975 xenografts): sensitizes the tumor cells
